Literature values in patent publication US20050026813A1, “Antibiotic-metal complexes in the detection of gram-positive bacteria and other biological analytes” (priority 2003, published 2005).

Key:
[1] = test system: anaerobes and gram-positive aerobes
[2] = test system: Bacillus subtilis ATCC 6633
[3] = test system: Streptococcus pyogenes CN10
gram-positive bacteria = conditions: in words
[4] = test system: Staphylococcus aureus SR14
S. aureus SR2030 = S. aureus SR2030 in mice, s.c.
[5] = systemic infections in mice, Enterobacter faecalis
Staphylococcus aureus = conditions: systemic infections in mice
Strep pneumoniae = conditions: systemic infections in mice
[6] = test system: laboratory strains of aerobic and anaerobic gram-positive bacteria
Streptococcus pyogenes = conditions: systemic infections in mice
[7] = test system: subcutaneous and urinary tract infections
[8] = test system: multi-drug resistant strains of Haemophilus influenzae and Moraxella catarrhalis
[9] = test system: Staphylococcus aureus Oxford
Staphylococcus aureus 56 = conditions: mice infected with Staphylococcus aureus 56
[10] = test system: Mycobacterium smegmatis ATCC 607
[11] = test system: Enterococcus faecalis subsp. Liquifaciens S-299
[12] = test system: Staphylococcus aureus SG511
[13] = test system: Streptococcus pyogenes 77A

COC(C)C(NC(=O)C1CCCN1C)C1OC(SC)C(O)C(O)C1O (stereo not shown) [BU-2545, 7-O-methyl-4′-de-n-propyllincomycin]
antibacterial activity [1]: exhibits antibacterial activity

CCCCCCCCCC(=O)NC1C(O[C@@H]2c3cc(Cl)c(c(Cl)c3)Oc3cc4cc(c3OC3OC(CO)C(O)C(O)C3O)Oc3ccc(cc3Cl)[C@@H](O)[C@H]3NC(=O)[C@H](NC)c5ccc(O)c(c5)Oc5cc(O)c(Cl)c(c5)C(NC3=O)C(=O)NC4C(=O)N[C@H]3C(=O)N[C@@H]2C(O)N[C@H](C(=O)O)c2cc(O)cc(O)c2-c2cc3cc(Cl)c2OC2OC(CO)C(O)C(O)C2O)OC(C(=O)O)C(O)C1O (stereo partly shown) [MM 55268]
MIC (Micrococcus luteus): 2 microgram/ml | MIC [2]: 2 microgram/ml | MIC (Staph. aureus V573 MR): 1 microgram/ml | MIC [3]: 0.25 microgram/ml

CNC(CC(C)C)C(=O)NC1C(=O)NC(CC(N)=O)C(=O)NCC2C(=O)NC3CC/C=C\C=C(\O)CCc4c(O)cc(O)cc4C(C(=O)O)NCC(=O)C(CC(OC4CC(C)(N)C(O)C(C)O4)CC/C=C\COC4=C(OC5OC(CO)C(O)C(O)C5OC5CC(C)(N)C(O)C(C)O5)C(=CC2C=C4)OC/C=C\CCC1O)NCC3=O (stereo not shown) [PA-42867]
activity against gram-positive bacteria (gram-positive bacteria): potent activity | MIC [4]: 0.78 microgram/ml | ED50 (S. aureus SR2030): 2.31 mg/kg

CN[C@H](CC(C)C)C(=O)N[C@H]1C(=O)N[C@@H](CC(N)=O)C(=O)N[C@H]2C(=O)NC3C(=O)N[C@@H](C[C@H](OC4C[C@@H](C)C(O)C(C)O4)c4ccc(c(Cl)c4)Oc4cc2cc(c4OC2OC(CO)C(O)C(O)C2O)OC2CC=C(C=C2Cl)C1O)C(=O)N[C@H](C(=O)O)c1cc(O)cc(O)c1-c1cc3ccc1O (stereo partly shown) [S-3662]
ED50 [5]: 0.95 mg/kg | ED50 (Staphylococcus aureus): 2.63 mg/kg | ED50 (Strep pneumoniae): 0.39 mg/kg | activity compared with vancomycin [6]: superior to vancomycin | ED50 (Streptococcus pyogenes): 0.49 mg/kg | therapeutic efficacy [7]: showed therapeutic efficacy

C[C@@H]1CN(c2c(F)c(N)c3c(=O)c(C(=O)O)cn(C4CC4)c3c2F)C[C@H](C)N1 [sparfloxacin]
in vitro activity [8]: highly active

CN[C@H](CC(C)C)C(=O)N[C@H]1C(=O)N[C@@H](CC(N)=O)C(=O)N[C@H]2C(=O)N[C@H]3C(=O)N[C@H](C(=O)N[C@H](C(=O)O)c4cc(O)cc(O)c4-c4cc3ccc4O)[C@H](O)c3ccc(c(Cl)c3)Oc3cc2cc(c3O[C@@H]2O[C@H](CO)[C@@H](O)[C@H](O)[C@H]2O[C@H]2C[C@](C)(N)[C@H](O)[C@H](C)O2)Oc2ccc(cc2Cl)[C@H]1O [vancomycin]
MIC (Micrococcus luteus): 2 microgram/ml | MIC [9]: 2 microgram/ml | MIC [2]: 0.25 microgram/ml | MIC (Staph. aureus V573 MR): 2 microgram/ml | MIC [3]: 1 microgram/ml | MIC (Strep. faecalis I): 2 microgram/ml

avoparcin alpha, 49-chloro-4B,50-di-O-alpha-D-mannopyranosyl- [Galacardin A]
MIC (S. aureus Sank 70175): 6.25 microgram/ml | in vivo efficacy (ED50) (Staphylococcus aureus 56): 19.0 mg/kg | MIC [10]: 25.0 microgram/ml | MIC [11]: 6.25 microgram/ml

des-methyl-balhimycin
MIC (S. aureus 285): 0.1 microgram/ml | MIC [12]: 0.1 microgram/ml | MIC [13]: 0.05 microgram/ml | MIC (S. aureus 503): 0.05 microgram/ml

vancomycin,22-O-(3-amino-2,3,6-trideoxy-3-C-methyl-alpha-D-arabino-hexopyranosyl)-2′-O-de(3-amino-2,3,6-trideoxy-3-C-methyl-alpha-L-lyxoyranosyl)-10,19-didechloro-2′-O-(6-deoxy-alpha-D-talopyranosyl)- [MM-49721]
activity against gram-positive bacteria (gram-positive bacteria): good activity | MIC (Bacillus subtilis): 2 microgram/ml
